The results in this text go back to the supplement of paper PMC10721915.

± gives the standard deviation of the averaged measurements.

Compound in this assay: COc1ccc([C@@H](O)c2cc(-c3ncnc4cc(N5CCOCC5)ccc34)c(F)cc2Cl)nn1 [peposertib]
The assay is described as follows: relative cell growth vs untreated control (GI, NCI-DTP normalisation with time-zero) (fraction of control growth); higher = more growth / less inhibition. To be noted: treatment time: 120 h. The method, then: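 Cancer cell lines were treated with peposertib (DNA-PK inhibitor) combined with gamma ionizing radiation (0, 2, 3 or 6 Gy) for 120 h, starting 48 h after seeding. Read-out was sulforhodamine B total-protein staining, normalised to untreated control and time-zero wells (NCI-DTP GI convention).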

Setting [1] is: peposertib concentration 0.00488 µM, gamma irradiation dose (Gy): 0.
Setting [2] is: peposertib concentration 0.0195 µM, gamma irradiation dose (Gy): 0.
The mark [3] stands for this setting: peposertib concentration 0.0781 µM, gamma irradiation dose (Gy): 0.
The mark [4] stands for this setting: peposertib concentration 0.313 µM, gamma irradiation dose (Gy): 0.
Where [5] appears, read: peposertib concentration 1.25 µM, gamma irradiation dose (Gy): 0.
The mark [6] stands for this setting: peposertib concentration 5 µM, gamma irradiation dose (Gy): 0.

In the case of SF295, the relative cell growth by setting is: under setting [1], 1.03; under setting [2], 1.01; under setting [3], 0.992; under setting [4], 0.945; under setting [5], 0.54; under setting [6], 0.209.
Consider SKBR3, for which the relative cell growth under setting [1] is 0.938; the relative cell growth under setting [2] was found to be 1.03; the relative cell growth under setting [3] amounted to 1.03; the relative cell growth under setting [4] was found to be 0.89; the relative cell growth under setting [5] came to 0.523; the relative cell growth under setting [6] stood at 0.0447.
Regarding SKLMS1, the relative cell growth was determined as 0.903 under setting [1]; 0.977 under setting [2]; 0.896 under setting [3]; 0.593 under setting [4]; 0.435 under setting [5]; 0.169 under setting [6].
For SKMEL5, the relative cell growth reads like this: under setting [1], 1.07; under setting [2], 1.07; under setting [3], 1.11; under setting [4], 1.08; under setting [5], 0.72; under setting [6], 0.202.
With SKMEL28, the relative cell growth stood at 1 under setting [1]; 1.02 under setting [2]; 0.902 under setting [3]; 0.746 under setting [4]; 0.648 under setting [5]; 0.477 under setting [6].
In the case of SUDHL6, the relative cell growth was 0.943 under setting [1]; 0.915 under setting [2]; 0.816 under setting [3]; 0.254 under setting [4]; -0.0283 under setting [5]; -0.0413 under setting [6].
As to SUDHL10, the relative cell growth stood at 1.01 under setting [1]; 1.01 under setting [2]; 1.02 under setting [3]; 1.12 under setting [4]; 1.12 under setting [5]; 0.345 under setting [6].
With SW620, the relative cell growth by setting is: under setting [1], 1.03 ± 0.033; (peposertib concentration 0.00488 µM, gamma irradiation dose (Gy): 3) 0.3; under setting [2], 1.01 ± 0.048; (peposertib concentration 0.0195 µM, gamma irradiation dose (Gy): 3) 0.245; under setting [3], 0.992 ± 0.054; (peposertib concentration 0.0781 µM, gamma irradiation dose (Gy): 3) 0.131. The relative cell growth worked out at 0.94 ± 0.046 under setting [4]; 0.044 (peposertib concentration 0.313 µM, gamma irradiation dose (Gy): 3); 0.833 ± 0.15 under setting [5]; 0.0135 (peposertib concentration 1.25 µM, gamma irradiation dose (Gy): 3); 0.675 ± 0.2 under setting [6]; 0.0174 (peposertib concentration 5 µM, gamma irradiation dose (Gy): 3).
As for T24, the relative cell growth reads like this: under setting [1], 1.01; under setting [2], 0.992; under setting [3], 0.979; under setting [4], 0.927; under setting [5], 0.838; under setting [6], 0.748.
As to TE671, the relative cell growth under setting [1] came out at 0.999; the relative cell growth under setting [2] was found to be 0.999; the relative cell growth under setting [3] is 0.989; the relative cell growth under setting [4] amounted to 0.929; the relative cell growth under setting [5] was found to be 0.736; the relative cell growth under setting [6] is 0.243.
As for THP1, the relative cell growth stood at 0.988 under setting [1]; 0.968 under setting [2]; 0.887 under setting [3]; 0.721 under setting [4]; 0.436 under setting [5]; 0.148 under setting [6].
With U2OS, the relative cell growth is, setting by setting: under setting [1], 1.05; under setting [2], 1.04; under setting [3], 1; under setting [4], 0.966; under setting [5], 0.815; under setting [6], 0.529.
As to U87MG, the relative cell growth is, setting by setting: under setting [1], 1.23; under setting [2], 1.06; under setting [3], 1.02; under setting [4], 0.733; under setting [5], 0.257; under setting [6], 0.116.
With UMUC3, the relative cell growth under setting [1] stood at 1.06; the relative cell growth under setting [2] came out at 1.06; the relative cell growth under setting [3] is 0.997; the relative cell growth under setting [4] was 0.932; the relative cell growth under setting [5] was determined as 0.819; the relative cell growth under setting [6] was determined as 0.5.
As to WSUNHL, the relative cell growth was 1.07 under setting [1]; 1.08 under setting [2]; 0.713 under setting [3]; 0.513 under setting [4]; 0.0836 under setting [5]; -0.0127 under setting [6].
